# Reference: ChEMBL document CHEMBL1201862, “PubChem BioAssay data set” (2004)
#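 Step 1: Grow cells in 96-well plates. Step 2: Expose to compound for 48 hours at 5 concentrations. Step 3: Interpolate endpoints linearly; if unreached, use highest concentration. At the GI50, growth is halved.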 The source made the active and inactive calls. Rule as the data show it: active = GI50 up to about 1.1 µM and inactive = higher.
# What was measured:
# Assay in all cases: NCI-60 cell line screen, 48 h
# K562 = test system: K562
# SF-268 = test system: SF-268
# HOP-62 = test system: HOP-62
# A549 = test system: A549
# NCI-H226 = test system: NCI-H226
# SF-295 = test system: SF-295
# SK-OV-3 = test system: SK-OV-3
# SNB-75 = test system: SNB-75
# SN12C = test system: SN12C
# MDA-N = test system: MDA-N
# HCC 2998 = test system: HCC 2998
# MDA-MB-435 = test system: MDA-MB-435
# OVCAR-4 = test system: OVCAR-4
# MCF7 = test system: MCF7
# SR = test system: SR
# UACC-257 = test system: UACC-257
# HT-29 = test system: HT-29
# NCI-H460 = test system: NCI-H460
# RPMI-8226 = test system: RPMI-8226
# SK-MEL-28 = test system: SK-MEL-28
# SK-MEL-2 = test system: SK-MEL-2
# CCRF-CEM = test system: CCRF-CEM
# BT-549 = test system: BT-549
# OVCAR-3 = test system: OVCAR-3
# MOLT-4 = test system: MOLT-4
# EKVX = test system: EKVX
# OVCAR-8 = test system: OVCAR-8
# HL-60 = test system: HL-60
# Malme-3M = test system: Malme-3M
# HOP-92 = test system: HOP-92
# COLO 205 = test system: COLO 205
# Hs-578T = test system: Hs-578T
# SK-MEL-5 = test system: SK-MEL-5
# HCT-116 = test system: HCT-116
# SW-620 = test system: SW-620
# CAKI-1 = test system: CAKI-1
# ACHN = test system: ACHN
# RXF 393 = test system: RXF 393
# HCT-15 = test system: HCT-15
# OVCAR-5 = test system: OVCAR-5
# TK-10 = test system: TK-10
# NCI-H23 = test system: NCI-H23
# LOX IMVI = test system: LOX IMVI
# 786-0 = test system: 786-0
# MDA-MB-231 = test system: MDA-MB-231
# DU-145 = test system: DU-145
# KM12 = test system: KM12
# NCI-H522 = test system: NCI-H522
# SF-539 = test system: SF-539
# IGROV-1 = test system: IGROV-1
# PC-3 = test system: PC-3
# M14 = test system: M14
# A498 = test system: A498
# NCI/ADR-RES = test system: NCI/ADR-RES
# UACC-62 = test system: UACC-62
# SNB-19 = test system: SNB-19
# U-251 = test system: U-251
# UO-31 = test system: UO-31
# T47D = test system: T47D
smiles,measurement,setting,value
Cc1cccc2c1c(=O)c1c(O)cc3c(c1n2C)C=CC(C)(C)O3,GI50,K562,18.1 µM (inactive)
same,GI50,SF-268,> 100 µM (inactive)
same,GI50,HOP-62,> 100 µM (inactive)
same,GI50,A549,> 100 µM (inactive)
same,GI50,NCI-H226,96.4 µM (inactive)
same,GI50,SF-295,> 100 µM (inactive)
same,GI50,SK-OV-3,> 100 µM (inactive)
same,GI50,SNB-75,> 100 µM (inactive)
same,GI50,SN12C,> 100 µM (inactive)
same,GI50,MDA-N,> 100 µM (inactive)
same,GI50,HCC 2998,> 100 µM (inactive)
same,GI50,MDA-MB-435,> 100 µM (inactive)
same,GI50,OVCAR-4,> 100 µM (inactive)
same,GI50,MCF7,> 100 µM (inactive)
same,GI50,SR,> 100 µM (inactive)
same,GI50,UACC-257,> 100 µM (inactive)
same,GI50,HT-29,9.1 µM (inactive)
same,GI50,NCI-H460,> 100 µM (inactive)
same,GI50,RPMI-8226,> 100 µM (inactive)
same,GI50,SK-MEL-28,> 100 µM (inactive)
same,GI50,SK-MEL-2,> 100 µM (inactive)
same,GI50,CCRF-CEM,> 100 µM (inactive)
same,GI50,BT-549,> 100 µM (inactive)
same,GI50,OVCAR-3,> 100 µM (inactive)
same,GI50,MOLT-4,> 100 µM (inactive)
same,GI50,EKVX,33.9 µM (inactive)
same,GI50,OVCAR-8,> 100 µM (inactive)
same,GI50,HL-60,> 100 µM (inactive)
same,GI50,Malme-3M,> 100 µM (inactive)
same,GI50,HOP-92,> 100 µM (inactive)
same,GI50,COLO 205,33.7 µM (inactive)
same,GI50,Hs-578T,> 100 µM (inactive)
same,GI50,SK-MEL-5,75 µM (inactive)
same,GI50,HCT-116,> 100 µM (inactive)
same,GI50,SW-620,> 100 µM (inactive)
same,GI50,CAKI-1,> 100 µM (inactive)
same,GI50,ACHN,> 100 µM (inactive)
same,GI50,RXF 393,> 100 µM (inactive)
same,GI50,HCT-15,> 100 µM
same,GI50,OVCAR-5,> 100 µM (inactive)
same,GI50,TK-10,64.9 µM (inactive)
same,GI50,NCI-H23,> 100 µM (inactive)
same,GI50,LOX IMVI,> 100 µM (inactive)
same,GI50,786-0,> 100 µM (inactive)
same,GI50,MDA-MB-231,> 100 µM (inactive)
same,GI50,DU-145,> 100 µM (inactive)
same,GI50,KM12,70.3 µM (inactive)
same,GI50,NCI-H522,> 100 µM (inactive)
same,GI50,SF-539,> 100 µM (inactive)
same,GI50,IGROV-1,62.7 µM (inactive)
same,GI50,PC-3,> 100 µM (inactive)
same,GI50,M14,> 100 µM (inactive)
same,GI50,A498,> 100 µM (inactive)
same,GI50,NCI/ADR-RES,> 100 µM (inactive)
same,GI50,UACC-62,> 100 µM (inactive)
same,GI50,SNB-19,> 100 µM (inactive)
same,GI50,U-251,> 100 µM (inactive)
CCCCCCc1cc(C=O)sc1-c1ccc(-c2sc(-c3ccc(-c4ccc(-c5cc(CCCCCC)c(-c6ccc(-c7sc(C=O)cc7CCCCCC)s6)s5)s4)s3)cc2CCCCCC)s1,GI50,K562,> 100 µM (inactive)
same,GI50,SF-268,85.9 µM (inactive)
same,GI50,HOP-62,> 100 µM (inactive)
same,GI50,A549,> 100 µM (inactive)
same,GI50,NCI-H226,28.4 µM (inactive)
same,GI50,SF-295,> 100 µM (inactive)
same,GI50,SK-OV-3,> 100 µM (inactive)
same,GI50,UO-31,> 100 µM (inactive)
same,GI50,SN12C,> 100 µM (inactive)
same,GI50,MDA-N,> 100 µM (inactive)
same,GI50,HCC 2998,> 100 µM (inactive)
same,GI50,MDA-MB-435,> 100 µM (inactive)
same,GI50,OVCAR-4,> 100 µM (inactive)
same,GI50,MCF7,> 100 µM (inactive)
same,GI50,SR,> 100 µM (inactive)
same,GI50,T47D,> 100 µM (inactive)
same,GI50,UACC-257,> 100 µM (inactive)
same,GI50,HT-29,> 100 µM (inactive)
same,GI50,NCI-H460,> 100 µM (inactive)
same,GI50,RPMI-8226,> 100 µM (inactive)
same,GI50,SK-MEL-28,> 100 µM (inactive)
same,GI50,SK-MEL-2,> 100 µM (inactive)
same,GI50,CCRF-CEM,> 100 µM (inactive)
same,GI50,BT-549,> 100 µM (inactive)
same,GI50,OVCAR-3,> 100 µM (inactive)
same,GI50,MOLT-4,> 100 µM (inactive)
same,GI50,EKVX,> 100 µM (inactive)
same,GI50,OVCAR-8,> 100 µM (inactive)
same,GI50,HL-60,> 100 µM (inactive)
same,GI50,Malme-3M,> 100 µM (inactive)
same,GI50,HOP-92,> 100 µM (inactive)
same,GI50,COLO 205,> 100 µM (inactive)
same,GI50,SK-MEL-5,> 100 µM (inactive)
same,GI50,HCT-116,> 100 µM (inactive)
same,GI50,SW-620,> 100 µM (inactive)
same,GI50,CAKI-1,> 100 µM (inactive)
same,GI50,ACHN,> 100 µM (inactive)
same,GI50,RXF 393,> 100 µM (inactive)
same,GI50,HCT-15,> 100 µM
same,GI50,OVCAR-5,> 100 µM (inactive)
same,GI50,TK-10,> 100 µM (inactive)
same,GI50,NCI-H23,> 100 µM (inactive)
same,GI50,LOX IMVI,> 100 µM (inactive)
same,GI50,786-0,> 100 µM (inactive)
same,GI50,MDA-MB-231,> 100 µM (inactive)
same,GI50,DU-145,> 100 µM (inactive)
same,GI50,KM12,> 100 µM (inactive)
same,GI50,NCI-H522,91.4 µM (inactive)
same,GI50,SF-539,> 100 µM (inactive)
same,GI50,IGROV-1,> 100 µM (inactive)
same,GI50,PC-3,> 100 µM (inactive)
same,GI50,M14,> 100 µM (inactive)
same,GI50,A498,> 100 µM (inactive)
same,GI50,NCI/ADR-RES,> 100 µM (inactive)
same,GI50,UACC-62,> 100 µM (inactive)
same,GI50,SNB-19,> 100 µM (inactive)
same,GI50,U-251,> 100 µM (inactive)
COC(=O)C(C)(C)OCc1ccc(C2NC(=O)N(c3cccc(Cl)c3)C(=O)N2c2cccc(Cl)c2)cc1 (stereo unspecified),GI50,K562,7.45 µM (inactive)
same,GI50,SF-268,26.1 µM (inactive)
same,GI50,HOP-62,99.8 µM (inactive)
same,GI50,A549,35.2 µM (inactive)
same,GI50,SF-295,31 µM (inactive)
same,GI50,SK-OV-3,54.3 µM (inactive)
same,GI50,SNB-75,0.34 µM (active)
same,GI50,UO-31,25.3 µM (inactive)
same,GI50,SN12C,29.2 µM (inactive)
same,GI50,MDA-N,55.8 µM (inactive)
same,GI50,HCC 2998,40.6 µM (inactive)
same,GI50,MDA-MB-435,46 µM (inactive)
same,GI50,OVCAR-4,57.5 µM (inactive)
same,GI50,MCF7,35.7 µM (inactive)
same,GI50,SR,0.52 µM (active)
same,GI50,UACC-257,31.8 µM (inactive)
same,GI50,HT-29,26.1 µM (inactive)
same,GI50,NCI-H460,29.4 µM (inactive)
same,GI50,RPMI-8226,9.16 µM (inactive)
same,GI50,SK-MEL-28,> 100 µM (inactive)
same,GI50,SK-MEL-2,52.8 µM (inactive)
same,GI50,CCRF-CEM,10.6 µM (inactive)
same,GI50,BT-549,51.1 µM (inactive)
same,GI50,OVCAR-3,56.2 µM (inactive)
same,GI50,MOLT-4,8.07 µM (inactive)
same,GI50,EKVX,10.5 µM (inactive)
same,GI50,OVCAR-8,32.6 µM (inactive)
same,GI50,HOP-92,15.1 µM (inactive)
same,GI50,COLO 205,28.6 µM (inactive)
same,GI50,Hs-578T,3.96 µM (inactive)
same,GI50,SK-MEL-5,10.7 µM (inactive)
same,GI50,HCT-116,36.6 µM (inactive)
same,GI50,SW-620,75.5 µM (inactive)
same,GI50,CAKI-1,35.2 µM (inactive)
same,GI50,ACHN,47.9 µM (inactive)
same,GI50,RXF 393,26.4 µM (inactive)
same,GI50,HCT-15,19.6 µM
same,GI50,OVCAR-5,> 100 µM (inactive)
same,GI50,NCI-H23,1.26 µM (inactive)
same,GI50,786-0,40.9 µM (inactive)
same,GI50,MDA-MB-231,55 µM (inactive)
same,GI50,DU-145,59.7 µM (inactive)
same,GI50,KM12,23.7 µM (inactive)
same,GI50,NCI-H522,10.6 µM (inactive)
same,GI50,SF-539,50.1 µM (inactive)
same,GI50,IGROV-1,22 µM (inactive)
same,GI50,PC-3,20.2 µM (inactive)
same,GI50,M14,65.3 µM (inactive)
same,GI50,NCI/ADR-RES,17.1 µM (inactive)
same,GI50,UACC-62,36.6 µM (inactive)
same,GI50,SNB-19,> 100 µM (inactive)
same,GI50,U-251,58.5 µM (inactive)
